In one series the test system is a variety of cancers. The settings on record: Phase II, combination with standard cytotoxic chemotherapy; cited from earlier work.
The conditions of series [1]: standing in pH 7.8; cyclization; cited from earlier work.
Series [2] has as its target T1, recombinant mouse FAPα (rmFAPα) (Mus musculus, UniProt P97321).
T1 construct: purchased R&S system (so in the source)
T1 sequence (P97321 1-761): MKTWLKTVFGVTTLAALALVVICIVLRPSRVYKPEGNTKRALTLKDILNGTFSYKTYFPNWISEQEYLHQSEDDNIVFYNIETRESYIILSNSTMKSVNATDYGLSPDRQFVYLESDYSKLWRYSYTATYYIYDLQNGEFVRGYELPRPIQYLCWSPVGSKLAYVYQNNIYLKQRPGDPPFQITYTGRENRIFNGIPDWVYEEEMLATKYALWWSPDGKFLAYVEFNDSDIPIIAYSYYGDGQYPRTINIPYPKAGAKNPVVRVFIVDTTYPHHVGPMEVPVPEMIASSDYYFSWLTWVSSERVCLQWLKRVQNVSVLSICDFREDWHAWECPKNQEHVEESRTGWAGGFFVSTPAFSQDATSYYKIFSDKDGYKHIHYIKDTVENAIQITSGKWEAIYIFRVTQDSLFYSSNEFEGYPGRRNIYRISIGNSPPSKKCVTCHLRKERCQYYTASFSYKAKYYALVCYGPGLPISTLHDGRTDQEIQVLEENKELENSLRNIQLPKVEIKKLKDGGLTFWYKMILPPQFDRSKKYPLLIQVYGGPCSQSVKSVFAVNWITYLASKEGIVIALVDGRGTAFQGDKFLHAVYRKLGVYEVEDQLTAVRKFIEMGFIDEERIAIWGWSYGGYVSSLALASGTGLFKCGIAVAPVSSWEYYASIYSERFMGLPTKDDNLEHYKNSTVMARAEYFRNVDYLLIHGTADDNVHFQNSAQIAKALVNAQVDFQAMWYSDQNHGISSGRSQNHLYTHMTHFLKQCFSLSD
The series can be described thus: FAPα enzymatic exopeptidase (dipeptidase) activity assay. Type of series: biochemical. The conditions noted are these: 1 μM test compound; Z-Gly-Pro-AMC substrate. The procedure:
FAPα enzymatic exopeptidase (dipeptidase) activity assay. […] 7-Amino-4-Methylcoumarin (AMC) release was detected by measuring fluorescence at Ex/Em 380/460 nm using a Multifunction Microplate Reader (Synergy 4, Biotek). All measurements were carried out in duplicate. […] For the calculations, the average measurements from reactions containing only vehicle and substrate, without enzyme, were used as a blank and were subtracted from the rest of the measurements. Percent inhibition was calculated using the average measurements from reactions containing vehicle, enzyme, and substrate as the maximum of enzymatic activity. Measurements were performed as a single point.

The target in series [3] is T2, recombinant human FAPα (rhFAPα) (Homo sapiens, UniProt Q12884).
T2 construct: purchased R&S system (so in the source)
T2 sequence (Q12884 1-760): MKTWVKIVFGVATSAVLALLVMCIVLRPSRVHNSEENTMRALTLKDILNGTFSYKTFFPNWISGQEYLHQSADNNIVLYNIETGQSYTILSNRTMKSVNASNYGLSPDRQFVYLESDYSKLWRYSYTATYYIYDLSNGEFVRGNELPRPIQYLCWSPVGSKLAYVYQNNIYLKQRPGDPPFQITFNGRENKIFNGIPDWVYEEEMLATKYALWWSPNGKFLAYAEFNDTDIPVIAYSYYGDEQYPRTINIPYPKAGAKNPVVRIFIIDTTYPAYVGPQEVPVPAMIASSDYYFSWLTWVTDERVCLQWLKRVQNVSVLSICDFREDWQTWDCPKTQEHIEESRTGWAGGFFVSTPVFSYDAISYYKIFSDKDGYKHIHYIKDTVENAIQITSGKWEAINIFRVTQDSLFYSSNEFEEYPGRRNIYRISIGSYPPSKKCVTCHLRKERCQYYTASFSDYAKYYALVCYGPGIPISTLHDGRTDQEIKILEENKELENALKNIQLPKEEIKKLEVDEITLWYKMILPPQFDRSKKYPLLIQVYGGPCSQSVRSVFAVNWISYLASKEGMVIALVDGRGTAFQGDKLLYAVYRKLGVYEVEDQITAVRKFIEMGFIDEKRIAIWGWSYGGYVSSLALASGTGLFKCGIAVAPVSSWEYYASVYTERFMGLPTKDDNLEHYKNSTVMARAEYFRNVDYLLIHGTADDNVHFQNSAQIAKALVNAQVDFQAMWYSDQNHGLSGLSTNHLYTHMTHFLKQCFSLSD
The series is described as above. Type of series: biochemical. The conditions noted are these: 1 μM test compound; Z-Gly-Pro-AMC substrate.

Series [4] addresses T3, recombinant mouse DPPIV (rmDPPIV) (Mus musculus, UniProt P28843).
T3 construct: purchased R&S system (so in the source)
Briefly: DPPIV enzymatic activity assay. The series is classed as biochemical. The settings on record: H-Gly-Pro-pNA substrate.

Series [5] addresses T4, recombinant mouse PREP (rmPREP) (Mus musculus, UniProt Q9QUR6).
T4 construct: purchased R&S system (so in the source)
Briefly: PREP enzymatic activity assay. Type of series: biochemical. The settings on record: Z-Gly-Pro-AMC substrate. The procedure: 7-Amino-4-Methylcoumarin (AMC) release was detected by measuring fluorescence at Ex/Em 380/460 nm using a Multifunction Microplate Reader (Synergy 4, Biotek). All measurements were carried out in triplicate.

The target of the next series is T5, mouse plasma DPPIV (Mus musculus, UniProt P28843).
T5 construct: from tissue; host or cells: mouse plasma (C57BL/6, EDTA)
The series can be described thus: DPPIV enzymatic activity in mouse plasma. Type of series: biochemical. The conditions noted are these: C57BL/6 mouse plasma; H-Gly-Pro-AMC substrate. The procedure:
Approximately 500 μL of whole blood from one C57BL/6 mouse was harvested into BD Microtainer® tubes (K2) EDTA (#365974, Becton Dickinson and Co.) via terminal cardiac puncture. The blood sample was immediately centrifuged at approximately 9000 g at 4° C. for 5 minutes. Plasma was separated and stored at −80° C. in aliquots of 300 μL. To assay baseline DPPIV enzymatic exopeptidase activity, 5 μL of thawed, mouse plasma was diluted (1:5) in buffer (100 mM Tris-HCl, 400 mM NaCl, 50 mM salicylic acid, 1 mM EDTA, pH 7.5) and mixed with 35 µL of the same buffer before being pre-incubated with different concentrations of 10 μL of test compounds or DMSO vehicle for 15 minutes at 37° C. in 96-well black plates (Nunc, #237108). After pre-incubation, 50 μL of 200 μM dipeptide substrate H-Gly-Pro-AMC (Bachem, #L-1225) was added to the mixture. The assay was performed for 1 hour at 37° C. 7-Amino-4-Methylcoumarin (AMC) release was detected measuring fluorescence at an excitation wavelength of 360 nm and an emission wavelength of 460 nm using a Multifunction Microplate Reader (Synergy 4, Biotek). All measurements were carried out at least in duplicate.

The nature of series [6]: Intravenous and oral bioavailability in mice. The series is classed as in vivo. The procedure:
The pharmacokinetic properties of exemplary test compounds were assayed after administration of an intravenous (IV) 2 mg/kg or oral (PO) 10 mg/kg single dose in mice. Exemplary test compounds were formulated at 0.4 and 1 mg/ml in a vehicle containing Poly-Ethylene Glycol 200 (PEG200; Cat. No. #P3015, Sigma Aldrich) and distilled water (dH2O) (50/50, v/v) as dosing solutions for intravenous and oral administration, respectively.
C57BL/6j and Balb/c mice, approximately 8-10 weeks old, were obtained from the vivarium Fundación Ciencia & Vida Chile (Santiago, Chile) and maintained in a temperature-controlled room with 12/12 hr light/dark schedule with food and water ad libitum. Animals were acclimated for a minimum period of 4 days upon arrival at the testing facility.
On the day of study, mice were weighed and identified by marking the tail with numbers using a non-toxic permanent marker for designation into the experimental groups (n=3 per group). Each mouse in the IV dosing groups received a systemic bolus of 2 mg/kg dosing solution via the caudal vein.
Non-dosed mice were used to collect samples of zero time points. […] Blood samples were centrifuged immediately at 9,000 g at 4° C. for 5 min and the plasma was separated.
The plasma samples were analyzed by QTRAP 4500 triple quadrupole mass spectrometer (Applied Biosystems SCIEX) in positive or negative ion mode depending on the tested compound and interfaced with an ekspert ultraLC 100-XL UPLC System (eksigent) to determine the concentration of the exemplary test compound. […] The precipitated samples were centrifuged at 6,100 g for 30 min at 4° C. Following centrifugation, an aliquot of each supernatant was transferred into a clean sample vial and diluted with two volumes of aqueous mobile phase (0.2% formic acid in water). Samples were injected onto a reverse phase analytical column (YMC Triart C18; 2.0×50 mm; 1.9 μm; YMC CO) and eluted with a gradient of 0.1 or 0.2% formic acid in Acetonitrile. Test compound and internal standard were monitored by a multiple reaction monitoring (MRM) experiment using Analyst software (v1.6.2, Applied Biosystems SCIEX). Quantitation was conducted using MultiQuant software (v2.1, Applied Biosystems SCIEX) and the resulting calibration curve was fitted with a linear or quadratic regression and 1/x weighting.
IV and PO PK parameters were calculated from the concentration-time data using Phoenix WinNonlin software (v6.4, Certara, Princeton, N.J.) by noncompartmental analysis. Area under the concentration-time curve (AUClast) was estimated using a log-linear trapezoidal method, from the dosing time to the last measurable concentration.

These results are taken from US11780821B2, “Inhibitors of fibroblast activation protein” (Praxis Biotech LLC, priority 2017, dated 2023).

As a reminder, the IC50 is the concentration that inhibits the measured activity by half.

T4 sequence (Q9QUR6 whole entry): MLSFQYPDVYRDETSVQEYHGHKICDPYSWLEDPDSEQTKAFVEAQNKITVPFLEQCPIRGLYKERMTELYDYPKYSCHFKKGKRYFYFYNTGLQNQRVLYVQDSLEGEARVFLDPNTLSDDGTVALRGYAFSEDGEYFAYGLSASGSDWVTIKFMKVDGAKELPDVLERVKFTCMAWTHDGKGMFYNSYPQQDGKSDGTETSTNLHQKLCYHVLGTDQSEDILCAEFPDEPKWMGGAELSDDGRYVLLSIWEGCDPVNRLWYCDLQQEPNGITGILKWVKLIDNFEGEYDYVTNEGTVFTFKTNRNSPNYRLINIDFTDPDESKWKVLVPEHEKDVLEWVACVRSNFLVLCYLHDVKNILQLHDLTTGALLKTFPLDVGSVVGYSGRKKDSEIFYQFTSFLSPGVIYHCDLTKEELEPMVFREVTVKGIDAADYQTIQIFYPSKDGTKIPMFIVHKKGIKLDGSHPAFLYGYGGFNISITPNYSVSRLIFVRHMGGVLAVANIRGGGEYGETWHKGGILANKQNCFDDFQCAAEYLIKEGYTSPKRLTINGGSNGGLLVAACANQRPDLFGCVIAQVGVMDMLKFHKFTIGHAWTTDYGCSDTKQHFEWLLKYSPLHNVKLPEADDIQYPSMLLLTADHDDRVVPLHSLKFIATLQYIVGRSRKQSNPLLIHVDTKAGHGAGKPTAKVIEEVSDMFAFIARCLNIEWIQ
T5 sequence (P28843 37-760 limits assumed): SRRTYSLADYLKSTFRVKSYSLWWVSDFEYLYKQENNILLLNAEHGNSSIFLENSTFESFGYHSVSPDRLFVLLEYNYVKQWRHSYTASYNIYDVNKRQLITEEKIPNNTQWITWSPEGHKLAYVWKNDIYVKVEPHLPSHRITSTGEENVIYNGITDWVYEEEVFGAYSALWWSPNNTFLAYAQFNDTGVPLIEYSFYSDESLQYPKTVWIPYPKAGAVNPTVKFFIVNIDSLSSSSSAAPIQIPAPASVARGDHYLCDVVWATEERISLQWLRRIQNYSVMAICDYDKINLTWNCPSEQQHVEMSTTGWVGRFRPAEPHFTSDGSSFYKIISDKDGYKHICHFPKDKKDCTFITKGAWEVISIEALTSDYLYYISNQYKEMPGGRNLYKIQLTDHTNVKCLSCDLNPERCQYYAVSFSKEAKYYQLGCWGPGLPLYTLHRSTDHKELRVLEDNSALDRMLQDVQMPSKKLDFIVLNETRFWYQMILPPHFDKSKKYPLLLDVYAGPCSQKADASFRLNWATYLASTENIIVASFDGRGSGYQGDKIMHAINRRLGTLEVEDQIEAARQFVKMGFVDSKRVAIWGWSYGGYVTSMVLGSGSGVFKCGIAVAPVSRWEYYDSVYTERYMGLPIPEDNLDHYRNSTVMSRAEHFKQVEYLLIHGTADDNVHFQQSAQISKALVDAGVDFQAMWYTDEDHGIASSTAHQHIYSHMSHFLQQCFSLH
T3 sequence (P28843 whole entry): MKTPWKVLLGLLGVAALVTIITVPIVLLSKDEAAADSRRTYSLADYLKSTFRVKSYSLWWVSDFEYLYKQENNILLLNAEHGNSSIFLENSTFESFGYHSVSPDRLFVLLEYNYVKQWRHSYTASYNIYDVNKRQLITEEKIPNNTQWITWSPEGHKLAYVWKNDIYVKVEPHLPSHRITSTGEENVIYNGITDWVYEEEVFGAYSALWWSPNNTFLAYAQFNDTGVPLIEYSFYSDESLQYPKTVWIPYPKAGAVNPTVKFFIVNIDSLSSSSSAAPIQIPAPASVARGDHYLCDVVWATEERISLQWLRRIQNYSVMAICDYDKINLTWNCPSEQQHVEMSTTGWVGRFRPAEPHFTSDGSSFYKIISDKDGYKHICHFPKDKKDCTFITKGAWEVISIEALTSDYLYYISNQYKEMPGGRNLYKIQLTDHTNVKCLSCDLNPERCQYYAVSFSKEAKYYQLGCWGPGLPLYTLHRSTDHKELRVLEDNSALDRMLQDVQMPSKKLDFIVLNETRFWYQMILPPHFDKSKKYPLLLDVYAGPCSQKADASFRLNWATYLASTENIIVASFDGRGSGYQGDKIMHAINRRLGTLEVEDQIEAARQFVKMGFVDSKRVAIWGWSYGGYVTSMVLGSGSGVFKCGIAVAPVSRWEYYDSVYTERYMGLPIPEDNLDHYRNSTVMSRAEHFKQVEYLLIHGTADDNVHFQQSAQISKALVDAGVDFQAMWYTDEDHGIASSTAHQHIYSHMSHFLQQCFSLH

Take `CC(C)[C@H](N)C(=O)N1CCC[C@H]1B(O)O` [Val-boroPro]: the clinical efficacy endpoints entry with a variety of cancers is recorded as “endpoints for efficacy were not met”. In addition, in series [1], the “stability of protease inhibitory activity” value is given as “rapidly loses protease inhibitory activity”.

Turning to `N#CC1CC(F)(F)CN1C(=O)CNC(=O)c1ccnc2ccccc12` (stereo not drawn) [Ref. Comp., reference compound], the “rmFAPα (% exo inh @ 1 μM)” value in series [2] is “+++ (+++ refers to > 50% inhibition at 1 μM test compound)”. Moreover, in series [3], the “rhFAPα (% exo inh @ 1 μM)” value is on record as “+++ (+++ refers to > 50% inhibition at 1 μM test compound)”. Moreover, the IC50 (in series [4]; in series [5]; at mouse plasma DPPIV) was greater than 10 µM throughout. Moreover, the “F (bioavailability)” value in series [6] (PO 10 mg/kg vs IV 2 mg/kg) is given as 39.7%. This molecule returned an AUClast in series [6] (oral (PO) 10 mg/kg single dose, plasma) of 1120 ng·h/mL.
